The text below walks through data of PubChem BioAssay AID250 (DTP/NCI, 2004).

Where “and” joins values, the source holds several entries; their conditions need not be identical. Equal values may be shown once. Inconclusive results and toxic doses are left out.

The experiment relates to BDF1 mice, L1210 leukemia sc, survival T/C. Kind of experiment: NCI In Vivo Anticancer Drug Screen. Data for tumor model L1210 Leukemia (subcutaneous) in B6D2F1 (BDF1) mice. To be noted: endpoint: median survival time, higher = longer survival. The essentials: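 Read-out: T/C ratio, i.e. survival or tumor size in treated mice over that in vehicle-treated controls, from mice bearing transplantable tumors.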

The mark [1] stands for this setting: dose: 108.0 mg/kg/injection, schedule: Q01DX Z (sc), vehicle: methylcellulose (MC).
The mark [2] stands for this setting: dose: 180.0 mg/kg/injection, schedule: Q01DX Z (sc), vehicle: methylcellulose (MC).
[3] abbreviates: dose: 300.0 mg/kg/injection, schedule: Q01DX Z (sc), vehicle: methylcellulose (MC).
The mark [4] stands for this setting: dose: 500.0 mg/kg/injection, schedule: Q01DX Z (sc), vehicle: methylcellulose (MC).
The mark [5] stands for this setting: dose: 65.0 mg/kg/injection, schedule: Q01DX Z (sc), vehicle: saline.
Where [6] appears, read: dose: 39.0 mg/kg/injection, schedule: Q01DX Z (sc), vehicle: methylcellulose (MC).
Setting [7] is: dose: 65.0 mg/kg/injection, schedule: Q01DX Z (sc), vehicle: methylcellulose (MC).

Take `Nc1nc(N)c2nc(CNc3ccc(C(=O)NC(CCC(=O)O)C(=O)O)cc3)cnc2n1` (configuration not stated): the T/C reads like this: (dose: 0.04 mg/kg/injection, schedule: Q01DX Z (sc), vehicle: other) 100 % of control; (dose: 0.05 mg/kg/injection, schedule: Q01DX Z (sc), vehicle: other) 100 % of control; (dose: 0.08 mg/kg/injection, schedule: Q01DX Z (sc), vehicle: other) 100 % of control; (dose: 0.4 mg/kg/injection, schedule: Q01DX Z (sc), vehicle: other) 120 % of control; (dose: 0.6 mg/kg/injection, schedule: Q01DX Z (sc), vehicle: other) 120 % of control; (dose: 0.89 mg/kg/injection, schedule: Q01DX Z (sc), vehicle: other) 120 % of control. Besides, the T/C is, setting by setting: (dose: 1.33 mg/kg/injection, schedule: Q01DX Z (sc), vehicle: other) 110 % of control; (dose: 2.0 mg/kg/injection, schedule: Q01DX Z (sc), vehicle: other) 120 % of control.

In the case of `S=c1nc[nH]c2c1ncn2C1C=CCCC1` (configuration not stated), the T/C runs as follows: (dose: 14.0 mg/kg/injection, schedule: Q01DX Z (sc), vehicle: methylcellulose (MC)) 100 % of control; (dose: 23.4 mg/kg/injection, schedule: Q01DX Z (sc), vehicle: methylcellulose (MC)) 100 % of control; under setting [1], 100 % of control.

As for `Nc1nc(SCc2ccccc2)c2[nH]cnc2n1`, the T/C was 122 % of control under setting [2], 122 % of control under setting [3] and 111 % of control under setting [4].

As for `COc1ccc2[nH]c3c(C)c4ccncc4c(C)c3c2c1`, the T/C (dose: 39.0 mg/kg/injection, schedule: Q01DX Z (sc), vehicle: saline) was 100 % of control; the T/C under setting [5] was 100 % of control; the T/C (dose: 108.0 mg/kg/injection, schedule: Q01DX Z (sc), vehicle: saline) is 112 % of control; the T/C (dose: 180.0 mg/kg/injection, schedule: Q01DX Z (sc), vehicle: saline) was 116 % of control; the T/C (dose: 300.0 mg/kg/injection, schedule: Q01DX Z (sc), vehicle: saline) is 116 % of control.

On to `CCCNc1ncnc2[nH]ncc12`, for which the T/C was 120 % of control (dose: 64.8 mg/kg/injection, schedule: Q01DX Z (sc), vehicle: methylcellulose (MC)); 110 % of control under setting [1]; 100 % of control under setting [2]; 100 % of control under setting [3]; 100 % of control under setting [4].

With `CC[C@]1(O)C[C@H]2CN(CCc3c([nH]c4ccccc34)[C@@](C(=O)OC)(c3cc4c(cc3OC)N(C=O)[C@H]3[C@@](O)(C(=O)OC)[C@H](OC(C)=O)[C@]5(CC)C=CCN6CC[C@]43[C@@H]65)C2)C1`, the T/C (dose: 0.25 mg/kg/injection, schedule: Q01DX001 (sc), vehicle: water) is 100 % of control and 101 % of control; the T/C (dose: 0.5 mg/kg/injection, schedule: Q01DX001 (sc), vehicle: water) is 104 % of control and 105 % of control; the T/C (dose: 0.65 mg/kg/injection, schedule: Q01DX Z (oral), vehicle: water) is 116 % of control; the T/C (dose: 1.0 mg/kg/injection, schedule: Q01DX001 (sc), vehicle: water) is 111 % of control; the T/C (dose: 1.08 mg/kg/injection, schedule: Q01DX Z (oral), vehicle: water) is 122 % of control; the T/C (dose: 1.08 mg/kg/injection, schedule: Q02DX Z (sc), vehicle: water) was 111 % of control. The T/C (dose: 1.8 mg/kg/injection, schedule: Q01DX Z (oral), vehicle: water) was 100 % of control; the T/C (dose: 1.8 mg/kg/injection, schedule: Q02DX Z (sc), vehicle: water) was 122 % of control; the T/C (dose: 2.0 mg/kg/injection, schedule: Q01DX001 (sc), vehicle: water) is 120 % of control and 122 % of control; the T/C (dose: 3.0 mg/kg/injection, schedule: Q01DX Z (oral), vehicle: water) is 100 % of control; the T/C (dose: 3.0 mg/kg/injection, schedule: Q02DX Z (sc), vehicle: water) is 122 % of control; the T/C (dose: 5.0 mg/kg/injection, schedule: Q01DX Z (oral), vehicle: water) is 100 % of control. The T/C by setting is: (dose: 5.0 mg/kg/injection, schedule: Q02DX Z (sc), vehicle: water) 116 % of control; (dose: 8.4 mg/kg/injection, schedule: Q02DX Z (sc), vehicle: water) 100 % of control.

For `COc1cccc2c1C(=O)c1c(O)c3c(c(O)c1C2=O)CC(O)(C(=O)CO)CC3OC1CC(N)C(O)C(C)O1` (configuration not stated), the T/C (dose: 11.4 mg/kg/injection, schedule: Q04DX003 (ip), vehicle: saline) is 87 % of control; the T/C (dose: 22.8 mg/kg/injection, schedule: Q04DX003 (ip), vehicle: saline) was 89 % of control; the T/C (dose: 45.6 mg/kg/injection, schedule: Q04DX003 (ip), vehicle: saline) was 90 % of control; the T/C (dose: 91.2 mg/kg/injection, schedule: Q04DX003 (ip), vehicle: saline) was 95 % of control; the T/C (dose: 182.4 mg/kg/injection, schedule: Q04DX003 (ip), vehicle: saline) was 103 % of control.

As to `CCN(CC)C(=O)c1cccnc1`, the T/C is 109 % of control (dose: 28.0 mg/kg/injection, schedule: Q01DX Z (sc), vehicle: water); 100 % of control (dose: 46.7 mg/kg/injection, schedule: Q01DX Z (sc), vehicle: water); 100 % of control (dose: 77.8 mg/kg/injection, schedule: Q01DX Z (sc), vehicle: water); 100 % of control (dose: 130.0 mg/kg/injection, schedule: Q01DX Z (sc), vehicle: water); 100 % of control (dose: 216.0 mg/kg/injection, schedule: Q01DX Z (sc), vehicle: water).

For the molecule `C[C@@H](CN1CC(=O)NC(=O)C1)N1CC(=O)NC(=O)C1`, the T/C was 103 % of control (dose: 8.0 mg/kg/injection, schedule: Q01DX009 (ip), vehicle: water); 105 % of control and 115 % of control (dose: 16.0 mg/kg/injection, schedule: Q01DX009 (ip), vehicle: water); 114 % of control (dose: 32.0 mg/kg/injection, schedule: Q01DX009 (ip), vehicle: water); 150 % of control (dose: 128.0 mg/kg/injection, schedule: Q01DX009 (ip), vehicle: water); 121 % of control (dose: 512.0 mg/kg/injection, schedule: Q01DX009 (ip), vehicle: water).

In the case of `O=P(N1CCOCC1)(N1CC1)N1CC1`, the T/C was 96 % of control and 110 % of control (dose: 5.0 mg/kg/injection, schedule: Q01DX Z (sc), vehicle: saline); 100 % of control and 110 % of control (dose: 8.4 mg/kg/injection, schedule: Q01DX Z (sc), vehicle: saline); 160 % of control and 164 % of control (dose: 23.0 mg/kg/injection, schedule: Q01DX Z (sc), vehicle: saline); 112 % of control under setting [5].

In the case of `CC(=O)OCC(=O)[C@@]1(O)CC[C@H]2[C@@H]3CCC4=CC(=O)CC[C@]4(C)[C@@]3(F)[C@@H](O)C[C@@]21C`, the T/C was 100 % of control under setting [6]; 100 % of control under setting [7]; 100 % of control under setting [1]; 104 % of control under setting [2]; 100 % of control under setting [3]; 100 % of control under setting [4].

Turning to `C[C@]12CCC(=O)C=C1CC[C@@H]1[C@@H]2C(=O)C[C@@]2(C)[C@H]1CC[C@]2(O)C(=O)CO`, the T/C under setting [6] is 100 % of control; the T/C under setting [7] was 104 % of control; the T/C under setting [1] is 104 % of control; the T/C under setting [2] is 100 % of control; the T/C under setting [3] is 100 % of control.

`C[n+]1c2ccccc2c(Nc2ccc(NS(=O)(=O)CCCCN=C(N)N)cc2)c2ccc(N)cc21`: the T/C by setting is: (dose: 1.5 mg/kg/injection, schedule: Q01DX009 (ip), vehicle: water) 110 % of control; (dose: 3.0 mg/kg/injection, schedule: Q01DX009 (ip), vehicle: water) 120 % of control; (dose: 6.0 mg/kg/injection, schedule: Q01DX009 (ip), vehicle: water) 151 % of control; (dose: 12.0 mg/kg/injection, schedule: Q01DX009 (ip), vehicle: water) 173 % of control.
